Results reported in the NIST ThermoML archive (doi:10.1016/j.jct.2016.04.009).

How the values were obtained:
[1] = molar heat capacity at constant pressure; settings: 101.33 kPa
[2] = DSC
[3] = Molar enthalpy of transition or fusion; settings: DSC

C[n+]1ccn(Cc2ccccc2)c1.O=S(=O)([N-]S(=O)(=O)C(F)(F)F)C(F)(F)F
[1], Liquid
Settings | molar heat capacity at constant pressure [J/K/mol]
258.09 K, Small sample (50 mg) DSC | 588.22
263.2 K, Small sample (50 mg) DSC | 589.8
268.3 K, Small sample (50 mg) DSC | 592.39
273.38 K, Small sample (50 mg) DSC | 596.83
278.51 K, Small sample (50 mg) DSC | 597.13
283.61 K, Small sample (50 mg) DSC | 599.43
288.72 K, Small sample (50 mg) DSC | 601.59
293.82 K, Small sample (50 mg) DSC | 603.91
298.15 K, Drop calorimetry | 598.96
298.93 K, Small sample (50 mg) DSC | 606.63
304.03 K, Small sample (50 mg) DSC | 609.41
309.14 K, Small sample (50 mg) DSC | 611.94
314.24 K, Small sample (50 mg) DSC | 615.52
319.35 K, Small sample (50 mg) DSC | 618.97
324.45 K, Small sample (50 mg) DSC | 621.42
329.41 K, Small sample (50 mg) DSC | 624.07
334.67 K, Small sample (50 mg) DSC | 626.99
339.78 K, Small sample (50 mg) DSC | 630.16
344.88 K, Small sample (50 mg) DSC | 633.62
349.99 K, Small sample (50 mg) DSC | 636.94
355.08 K, Small sample (50 mg) DSC | 640.33

Settings | Glass transition temperature [°C]
[2] | -56.4

C[n+]1ccn(Cc2ccccc2)c1.[Cl-] [1-benzyl-3-methyl-1H-imidazolium chloride]
molar heat capacity at constant pressure [J/K/mol], [1]
Settings | Crystal | Metastable liquid
261.06 K, Small sample (50 mg) DSC | 238.97 | –
265 K, Small sample (50 mg) DSC | 243.67 | –
270 K, Small sample (50 mg) DSC | 252.99 | –
275 K, Small sample (50 mg) DSC | 261.15 | –
277.11 K, Small sample (50 mg) DSC | – | 329.64
280 K, Small sample (50 mg) DSC | 269.17 | 330.72
285 K, Small sample (50 mg) DSC | 278.83 | 332.88
289.14 K, Small sample (50 mg) DSC | 288.47 | –
290 K, Small sample (50 mg) DSC | – | 335.29
295 K, Small sample (50 mg) DSC | – | 338
298.15 K, Drop calorimetry | – | 338.43
300 K, Small sample (50 mg) DSC | – | 340.37
305 K, Small sample (50 mg) DSC | – | 342.49
310 K, Small sample (50 mg) DSC | – | 344.71
315 K, Small sample (50 mg) DSC | – | 346.85
320 K, Small sample (50 mg) DSC | – | 348.98
325 K, Small sample (50 mg) DSC | – | 351.32
330 K, Small sample (50 mg) DSC | – | 353.53
335 K, Small sample (50 mg) DSC | – | 355.73
340 K, Small sample (50 mg) DSC | – | 358
345 K, Small sample (50 mg) DSC | – | 360.85
350 K, Small sample (50 mg) DSC | – | 363.87
355 K, Small sample (50 mg) DSC | – | 367.01

Settings | Glass transition temperature [°C]
[2] | -8.4

C[n+]1ccn(Cc2ccccc2)c1.F[B-](F)(F)F [1-benzyl-3-methylimidazolium tetrafluoroborate]
Settings | Molar enthalpy of transition or fusion, [3] [kcal/mol] | Triple point temperature, [2] [K]
Crystal | 4.57 | 346.2
Metastable crystal | 3.97 | 336.5

[1]
Settings | molar heat capacity at constant pressure [J/K/mol]
261.7 K, Crystal, Small sample (50 mg) DSC | 292.62
265 K, Crystal, Small sample (50 mg) DSC | 295.4
270 K, Crystal, Small sample (50 mg) DSC | 299.6
275 K, Crystal, Small sample (50 mg) DSC | 304.74
275.65 K, Metastable crystal, Small sample (50 mg) DSC | 283.68
280 K, Crystal, Small sample (50 mg) DSC | 309.29
280 K, Metastable crystal, Small sample (50 mg) DSC | 287.35
285 K, Crystal, Small sample (50 mg) DSC | 313.98
285 K, Metastable crystal, Small sample (50 mg) DSC | 292.48
290 K, Crystal, Small sample (50 mg) DSC | 319.04
290 K, Metastable crystal, Small sample (50 mg) DSC | 298.09
295 K, Crystal, Small sample (50 mg) DSC | 324.16
295 K, Metastable crystal, Small sample (50 mg) DSC | 303.57
298.15 K, Crystal, Drop calorimetry | 325.85
298.15 K, Metastable crystal, Drop calorimetry | 304.61
300 K, Crystal, Small sample (50 mg) DSC | 329.01
300 K, Metastable crystal, Small sample (50 mg) DSC | 307.82
305 K, Crystal, Small sample (50 mg) DSC | 333.82
305 K, Metastable crystal, Small sample (50 mg) DSC | 312.26
310 K, Crystal, Small sample (50 mg) DSC | 338.5
310 K, Metastable crystal, Small sample (50 mg) DSC | 316.56
315 K, Crystal, Small sample (50 mg) DSC | 343.23
315 K, Metastable crystal, Small sample (50 mg) DSC | 320.92
318.98 K, Metastable crystal, Small sample (50 mg) DSC | 324.78
320 K, Crystal, Small sample (50 mg) DSC | 348.35
325 K, Crystal, Small sample (50 mg) DSC | 353.67
328.42 K, Crystal, Small sample (50 mg) DSC | 356.83
345.5 K, Small sample (50 mg) DSC, Liquid | 417.35
350 K, Small sample (50 mg) DSC, Liquid | 420.2
355 K, Small sample (50 mg) DSC, Liquid | 423.44
357.55 K, Small sample (50 mg) DSC, Liquid | 424.91

Settings | Glass transition temperature [°C]
[2] | -37.8

Cn1cc[n+](Cc2ccccc2)c1.F[P-](F)(F)(F)(F)F [1-benzyl-3-methylimidazolium hexafluorophosphate]
Crystal
Settings | Molar enthalpy of transition or fusion [kcal/mol] | Triple point temperature [K]
[2] | – | 399.7
[3] | 5.95 | –

[1], Crystal
Settings | molar heat capacity at constant pressure [J/K/mol]
258.09 K, Small sample (50 mg) DSC | 321.38
263.2 K, Small sample (50 mg) DSC | 325.69
268.3 K, Small sample (50 mg) DSC | 330.39
273.41 K, Small sample (50 mg) DSC | 335.64
278.51 K, Small sample (50 mg) DSC | 339.82
283.62 K, Small sample (50 mg) DSC | 344.42
288.72 K, Small sample (50 mg) DSC | 348.47
293.83 K, Small sample (50 mg) DSC | 352.84
298.15 K, Drop calorimetry | 360.42
298.93 K, Small sample (50 mg) DSC | 357.16
304.04 K, Small sample (50 mg) DSC | 361.74
309.14 K, Small sample (50 mg) DSC | 366.16
314.25 K, Small sample (50 mg) DSC | 371.17
319.35 K, Small sample (50 mg) DSC | 376.2
324.46 K, Small sample (50 mg) DSC | 380.3
329.56 K, Small sample (50 mg) DSC | 384.8
334.67 K, Small sample (50 mg) DSC | 389.73
339.77 K, Small sample (50 mg) DSC | 394.64
344.88 K, Small sample (50 mg) DSC | 399.86
349.98 K, Small sample (50 mg) DSC | 404.92
355.09 K, Small sample (50 mg) DSC | 410.63

Settings | Glass transition temperature [°C]
[2] | -28.3

C[n+]1ccn(Cc2ccccc2)c1.O=S(=O)([O-])C(F)(F)C(F)F
Crystal
Settings | Molar enthalpy of transition or fusion [kcal/mol] | Triple point temperature [K]
[2] | – | 315.4
[3] | 5.64 | –

[1]
Settings | molar heat capacity at constant pressure [J/K/mol]
278.51 K, Crystal, Small sample (50 mg) DSC | 393.57
283.62 K, Crystal, Small sample (50 mg) DSC | 402.07
288.72 K, Crystal, Small sample (50 mg) DSC | 411.24
293.83 K, Crystal, Small sample (50 mg) DSC | 423.44
298.15 K, Crystal, Drop calorimetry | 434.75
298.15 K, Metastable liquid, Drop calorimetry | 509.51
334.67 K, Liquid, Small sample (50 mg) DSC | 527.08
339.77 K, Liquid, Small sample (50 mg) DSC | 530.26
344.88 K, Liquid, Small sample (50 mg) DSC | 533.48
349.98 K, Liquid, Small sample (50 mg) DSC | 537.12
355.09 K, Liquid, Small sample (50 mg) DSC | 540.53

Settings | Glass transition temperature [°C]
[2] | -44.0
